Experimental data reported in patent US20250205197A1.
Entries after “also recorded” stand apart in the source; their conditions may differ.

Legend:
[1] = molecular target: T1, 5-HT1A receptor (Homo sapiens, UniProt P08908); test: cAMP-Glo assay of 5-HT1A receptor modulation, CHO-K1/5-HT1A/Ga15 vs CHO-K1/Ga15 cells; type: cell-based; conditions: for 5-HT1A receptor modulation (cAMP, +5-HT1A vs −5-HT1A cultures): forskolin-stimulated cells, 20 minutes treatment; for cAMP levels with increasing ligand: +5-HT1A cells stimulated with forskolin, control ligands
T1 construct: host or cells: CHO-K1 (co-expressing Ga15)
T1 sequence (P08908 1-422): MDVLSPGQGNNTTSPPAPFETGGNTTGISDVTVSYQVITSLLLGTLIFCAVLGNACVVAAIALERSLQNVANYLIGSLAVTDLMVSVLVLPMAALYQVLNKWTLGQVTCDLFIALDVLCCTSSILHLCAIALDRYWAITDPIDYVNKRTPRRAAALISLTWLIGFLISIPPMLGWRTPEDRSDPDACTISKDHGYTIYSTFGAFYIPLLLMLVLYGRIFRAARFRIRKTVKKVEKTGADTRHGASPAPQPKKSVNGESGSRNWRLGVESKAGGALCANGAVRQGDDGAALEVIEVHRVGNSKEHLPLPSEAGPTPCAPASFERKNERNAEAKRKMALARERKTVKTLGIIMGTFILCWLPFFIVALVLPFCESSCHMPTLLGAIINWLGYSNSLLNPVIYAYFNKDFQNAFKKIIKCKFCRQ

[2] = molecular target: T2, 5-HT2A receptor (Mus musculus, UniProt P35363); test: Drug-induced Head Twitch Response (HTR) in mice; type: in vivo; conditions: i.p. 1 mg/kg; for Head Twitch Response (HTR): 15-to-30-minute window following administration, relative to vehicle
T2 construct: tissue Charles River; host or cells: living C57BL/6-Elite mice (brain, in vivo)
T2 sequence (P35363 whole entry): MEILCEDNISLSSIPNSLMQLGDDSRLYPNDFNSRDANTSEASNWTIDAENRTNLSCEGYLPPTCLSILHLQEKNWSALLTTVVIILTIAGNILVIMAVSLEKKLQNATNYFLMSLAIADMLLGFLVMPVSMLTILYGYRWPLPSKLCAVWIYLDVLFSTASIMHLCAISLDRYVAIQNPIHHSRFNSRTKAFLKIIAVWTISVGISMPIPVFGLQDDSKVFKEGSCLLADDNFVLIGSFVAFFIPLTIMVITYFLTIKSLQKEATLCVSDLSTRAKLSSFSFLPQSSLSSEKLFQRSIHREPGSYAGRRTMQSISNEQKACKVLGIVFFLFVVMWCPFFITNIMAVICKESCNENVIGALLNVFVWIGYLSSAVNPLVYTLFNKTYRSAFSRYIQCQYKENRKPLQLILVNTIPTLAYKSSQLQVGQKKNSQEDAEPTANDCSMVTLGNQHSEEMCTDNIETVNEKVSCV

[3] = Solubility of the salt in water
[4] = In vitro metabolic stability assay, human AB serum; type: in vitro ADME; conditions: 10% human AB serum
Excerpt: (§1) A fundamental evaluation in drug development is the assessment of absorption, distribution, metabolism, excretion, and pharmacokinetics (ADME/PK) (Eddershaw et al., 2000, Drug Discovery Today 5(9): 409-414). […] Drug stability upon exposure to human liver microsomes and liver S9 cellular fractions is a common in vitro assay to approximate in vivo, liver-based drug metabolism (Richardson et al., 2016 Drug Metabolism Letters 10:83-90). First-pass metabolism is also often approximated in vitro using intestinal microsome and cellular S9 fractions (Hatley et al., 2017, Biopharmaceuticals & Drug Disposition, 38(2):155-160). Further, it is well known that human serum, and particularly circulating serum esterases can contribute to systemic drug metabolism (Williams, F M 1987, Pharmacology and Therapeutics, 34:99-109). Many pharmacological agents are classified as prodrugs, as they undergo metabolic transformation in vivo upon administration to release the active drug compound into the systemic compartment (Zawilska J B, et al. 2013, Pharmacological Reports, 65:1-14). Psilocybin, a serotonergic psychedelic agent, is well known prodrug that is metabolized into the psychoactive product, psilocin (Dinis-Oliveira, R J 2017, Drug Metabolism Reviews, 49(1):84-91). […] Supernatants were analyzed for the presence of candidate prodrugs (parent molecule) and psilocin (the predicted metabolite) using Orbitrap LC-MS (Thermo Scientific) using previously described methods (Menéndez-Perdomo et al., 2021, J Mass Spectrom, 56: e4683). […] Assay concentrations (μM) of both parent ‘prodrug’ molecule and psilocin metabolite, as quantified through LC-MS using routine standard curve procedures, were plotted as functions of assay time (minutes). The metabolism rate (T1/2) was determined from the metabolism curve plot using the one phase decay feature of GraphPad PRISM software (Version 9.2.0). The quantity of parent prodrug at time zero was set as 100%. […]

[5] = In vitro metabolic stability and psilocin-release assays, statements covering several fractions; type: in vitro ADME, human
Excerpt: as §1

[6] = tested on: HepG2 cells; test: PrestoBlue cell viability assay in HepG2 cells; type: cell-based, human; conditions: 48 hours incubation
Excerpt: Methanol or DMSO were used as vehicles, at concentrations 0, 0.001, 0.01, 0.1, and 1% (methanol) or 0, 0.001, 0.01, 0.1, and 1% (DMSO), respectively. […] Non-treated cells were assigned 100% viability. Bar graphs show the mean+/−SD, n=3.
Non-treated cells were assigned 100% viability. Bar graphs show the mean+/−SD, n=3.

[7] = Mouse pharmacokinetic (PK) evaluation of drug metabolism to psilocin; type: in vivo, C57Bl/6 mice; conditions: mice
[8] = In vitro metabolic stability assay, human liver microsomes; type: in vitro ADME; conditions: HLM fraction, 37° C., NADPH
Excerpt: as §1, with “38(2):155-160).” for “38(2):155-160). Further, it is well known that human serum, and particularly circulating serum esterases can contribute to systemic drug metabolism (Williams, F M 1987, Pharmacology and Therapeutics, 34:99-109). Many pharmacological agents are classified as prodrugs, as they undergo metabolic transformation in vivo upon administration to release the active drug compound into the systemic compartment (Zawilska J B, et al. 2013, Pharmacological Reports, 65:1-14). Psilocybin, a serotonergic psychedelic agent, is well known prodrug that is metabolized into the psychoactive product, psilocin (Dinis-Oliveira, R J 2017, Drug Metabolism Reviews, 49(1):84-91).”

[9] = In vitro metabolic stability assay, human liver S9 fractions; type: in vitro ADME; conditions: HLS9 fraction, 37° C., NADPH
Excerpt: as §1, with “38(2):155-160).” for “38(2):155-160). Further, it is well known that human serum, and particularly circulating serum esterases can contribute to systemic drug metabolism (Williams, F M 1987, Pharmacology and Therapeutics, 34:99-109). Many pharmacological agents are classified as prodrugs, as they undergo metabolic transformation in vivo upon administration to release the active drug compound into the systemic compartment (Zawilska J B, et al. 2013, Pharmacological Reports, 65:1-14). Psilocybin, a serotonergic psychedelic agent, is well known prodrug that is metabolized into the psychoactive product, psilocin (Dinis-Oliveira, R J 2017, Drug Metabolism Reviews, 49(1):84-91).”

[10] = molecular target: 5-HT2A receptor (Homo sapiens, UniProt P28223); test: [3H]ketanserin radioligand competition binding assay (SPA); conditions: [3H]ketanserin competition
Sequence of 5-HT2A receptor (Homo sapiens, UniProt P28223) (P28223 whole entry): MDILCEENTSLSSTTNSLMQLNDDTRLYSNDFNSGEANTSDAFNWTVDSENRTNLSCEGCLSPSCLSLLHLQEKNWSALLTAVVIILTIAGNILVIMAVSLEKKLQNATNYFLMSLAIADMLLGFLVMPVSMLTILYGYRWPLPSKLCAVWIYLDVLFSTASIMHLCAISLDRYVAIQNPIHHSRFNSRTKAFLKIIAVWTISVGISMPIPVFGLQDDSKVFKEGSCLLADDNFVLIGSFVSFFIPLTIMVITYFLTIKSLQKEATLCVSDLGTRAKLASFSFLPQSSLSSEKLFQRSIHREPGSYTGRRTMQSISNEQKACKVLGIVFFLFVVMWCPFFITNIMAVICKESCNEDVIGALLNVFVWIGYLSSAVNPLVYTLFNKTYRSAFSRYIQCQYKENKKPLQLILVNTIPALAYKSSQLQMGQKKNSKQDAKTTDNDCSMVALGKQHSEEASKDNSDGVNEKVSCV

[11] = Stability assay in enzyme-free control buffer; type: in vitro ADME; conditions: negative control buffer, pH 7.4
Excerpt: as §1, with “38(2):155-160).” for “38(2):155-160). Further, it is well known that human serum, and particularly circulating serum esterases can contribute to systemic drug metabolism (Williams, F M 1987, Pharmacology and Therapeutics, 34:99-109). Many pharmacological agents are classified as prodrugs, as they undergo metabolic transformation in vivo upon administration to release the active drug compound into the systemic compartment (Zawilska J B, et al. 2013, Pharmacological Reports, 65:1-14). Psilocybin, a serotonergic psychedelic agent, is well known prodrug that is metabolized into the psychoactive product, psilocin (Dinis-Oliveira, R J 2017, Drug Metabolism Reviews, 49(1):84-91).”

COCCOCCOCC(=O)Oc1cccc2[nH]cc(CCN(C)C)c12 [C(III)]
5-HT1A receptor modulation (cAMP, +5-HT1A vs −5-HT1A cultures) [1]: significant receptor modulation | Head Twitch Response (HTR) [2]: Elevated incidences of HTR

COc1ccc(C(=O)Oc2cccc3[nH]cc(CCN(C)C)c23)cc1 [C(Va1)]
solubility in water [3]: ≥ 10 mg per mL

CN(C)CCc1c[nH]c2cccc(OC(=O)c3ccc(Br)cc3)c12 [C(I)]
5-HT1A receptor modulation (cAMP, +5-HT1A vs −5-HT1A cultures) [1]: mild receptor modulation at higher ligand concentrations | Head Twitch Response (HTR) [2]: Elevated incidences of HTR

COc1ccc(C(=O)Oc2cccc3[nH]cc(CCN(C)C)c23)cc1.O=C(O)C(O)C(O)C(=O)O [C(Va2)]
solubility in water [3]: ≥ 10 mg per mL

CN(C)CCc1c[nH]c2cccc(OC(=O)OCc3ccccc3)c12 [B(II)]
stability / dissociation to psilocin in serum [4]: failed completely to dissociate | dissociation to psilocin ([5]; HLM, HLS9, HIM, HIS9, AB serum, buffer control): did not readily dissociate to psilocin under any conditions | Head Twitch Response (HTR) [2]: elicit head twitching | CD50 (cytotoxicity, cell viability) [6]: 65.9 µM | time the derivative resides in plasma post-dosing ([7]; oral 10 mg/kg): up to 4 hours

CN(C)CCc1c[nH]c2cccc(OC(=O)SCc3ccccc3)c12 [E(VI)]
stability / dissociation to psilocin in serum [4]: nearly completely disappears | half-life (T1/2) [8]: 6 min | 5-HT1A receptor modulation (cAMP, +5-HT1A vs −5-HT1A cultures) [1]: mild receptor modulation at higher ligand concentrations | conversion to psilocin ([5]; liver fractions and serum): quickly converted to psilocin in liver fractions and serum | Head Twitch Response, E(VI) compared to B(II) [2]: elevated response | Head Twitch Response (HTR) ([2]; 1 mg/kg): Elevated incidences of HTR; also recorded: elicit head twitching | half-life (T1/2) [9]: 5 min | detection of the derivative in plasma ([7]; oral 1 mg/kg): neither B(II) nor E(VI) were detected in plasma | detection of the derivative in plasma ([7]; oral 3 mg/kg and 10 mg/kg): never detected at any timepoint

CN(C)CCc1c[nH]c2cccc(OC(=O)SCc3ccccc3)c12.Cl [E(VIa1)]
solubility in water [3]: ≥ 10 mg per mL

NCCc1c[nH]c2ccc(O)cc12 [serotonin, reference compound]
cAMP levels with increasing ligand [1]: reduction in cAMP levels

COc1ccc(C(=O)Oc2cccc3[nH]cc(CCN(C)C)c23)cc1 [C(V)]
5-HT1A receptor modulation (cAMP, +5-HT1A vs −5-HT1A cultures) [1]: mild receptor modulation at higher ligand concentrations | Head Twitch Response (HTR) [2]: Elevated incidences of HTR

COc1ccc(C(=O)Oc2cccc3[nH]cc(CCN(C)C)c23)cc1 [C(Vb1)]
solubility in water [3]: < 1 mg in a mL

CN(C)CCc1c[nH]c2cccc(OC(=O)c3cccc4c3OCCO4)c12 [C(XX)]
5-HT1A receptor modulation (cAMP, +5-HT1A vs −5-HT1A cultures) [1]: significant receptor modulation | Head Twitch Response (HTR) [2]: Elevated incidences of HTR

CN(C)CCc1c[nH]c2cccc(OC(=O)SCc3ccccc3)c12 [E(VIb1)]
solubility [3]: > 10000 µg/mL

CN(C)CCc1c[nH]c2cccc(O)c12 [psilocin, reference compound]
competition binding at 5-HT2A (controls, in words) [10]: binding | cAMP levels with increasing ligand [1]: reduction in cAMP levels

N[C@@H](Cc1c[nH]c2ccccc12)C(=O)O [tryptophan, reference compound]
competition binding at 5-HT2A (controls, in words) [10]: no binding | cAMP levels with increasing ligand [1]: no reduction in cellular cAMP levels

COC(=O)c1cccc(C(=O)Oc2cccc3[nH]cc(CCN(C)C)c23)c1 [C(XLIII)]
5-HT1A receptor modulation (cAMP, +5-HT1A vs −5-HT1A cultures) [1]: receptor modulation at higher ligand concentrations

CN(C)CCc1c[nH]c2cccc(OC(=O)c3cccc(C(=O)Oc4cccc5[nH]cc(CCN(C)C)c45)c3)c12 [C(VII)]
5-HT1A receptor modulation (cAMP, +5-HT1A vs −5-HT1A cultures) [1]: no significant receptor modulation | Head Twitch Response (HTR) [2]: Elevated incidences of HTR

CN(C)CCc1c[nH]c2cccc(OC(=O)CC3CC3)c12 [C(IV)]
5-HT1A receptor modulation (cAMP, +5-HT1A vs −5-HT1A cultures) [1]: significant receptor modulation | Head Twitch Response (HTR) [2]: Elevated incidences of HTR

CN(C)CCc1c[nH]c2cccc(OC(=O)c3c(F)c(F)c(F)c(F)c3F)c12 [C(VI)]
5-HT1A receptor modulation (cAMP, +5-HT1A vs −5-HT1A cultures) [1]: no receptor modulation at higher ligand concentrations | Head Twitch Response (HTR) [2]: Elevated incidences of HTR

CN(C)CCc1c[nH]c2cccc(OP(=O)(O)O)c12 [psilocybin]
stability / dissociation to psilocin in serum [4]: stable in serum with no conversion to psilocin | stability in assay buffer [11]: stability of psilocybin was confirmed in assay buffer | stability / conversion to psilocin in liver fractions ([5]; liver fractions (HLM, HLS9)): stable in liver fractions with no conversion to psilocin
